These results are taken from patent US12662479B2 (Foghorn Therapeutics Inc., priority 2020, dated 2026).

Structures are written as SMILES. Some results are limits rather than exact numbers.

In one assay the target is T1, HiBit-BRM fusion protein (Homo sapiens, UniProt P51531).
T1 construct: expressed in transfected cells
Description: HiBiT-BRM cell-based degradation assay (Nano-Glo HiBiT Lytic Detection, 24 h). As to conditions: HeLa cells expressing HiBiT-BRM; for DC50: read-out: BRM HiBit Degradation IC50; for BRM HiBit Degradation Maximum measured: top dose 30 μM. The protocol:
Procedure: A stable HeLa cell line expressing HiBiT-BRM was generated. On day 0, 5000 cells were seeded in 40 μL of media into each well of 384-well cell culture plates. On day 1, cells were treated with 120 nL DMSO or 120 nL of 3-fold serially DMSO-diluted compounds (10 points in duplicate with 30 μM as final top dose). Subsequently plates were incubated for 24 h in a standard tissue culture incubator and equilibrated at room temperature for 15 minutes. Nano-Glo HiBiT Lytic Detection System (Promega N3050) reagent was freshly prepared and 20 ul was added to each well. Upon addition of this LgBit-containing reagent, the HiBiT and LgBiT proteins associate to form the luminescent NanoBiT luciferase. The plates were shaken for 10 minutes at room temperature and the bioluminescence read using an EnVision plate reader (PerkinElmer).
(§1) The degradation % was calculated using the following formula: % degradation=100%−100%×(LumSample−LumLC)/(LumHC−LumLC). DMSO treated cells are employed as High Control (HC) and 2 μM of a known BRM/BRG1 degrader standard treated cells are employed as Low Control (LC).

The target in assay [1] is T2, HiBit-BRG1 fusion protein (Homo sapiens, UniProt P51532).
T2 construct: expressed in transfected cells
The assay is described as follows: HiBiT-BRG1 cell-based degradation assay (Nano-Glo HiBiT Lytic Detection, 24 h). The conditions noted are these: HeLa cells expressing HiBit-BRG1 and LgBit; for DC50: read-out: BRG1 HiBit Degradation IC50; for Dmax: HeLa, top dose 30 μM, read-out: BRG1 HiBit Degradation Maximum measured. The procedure: Procedure: A stable HeLa cell line expressing HiBiT-BRM was generated. On day 0, 5000 cells were seeded in 40 μL of media into each well of 384-well cell culture plates. […] Nano-Glo HiBiT Lytic Detection System (Promega N3050) reagent was freshly prepared and 20 ul was added to each well. Upon addition of this LgBit-containing reagent, the HiBiT and LgBiT proteins associate to form the luminescent NanoBiT luciferase. The plates were shaken for 10 minutes at room temperature and the bioluminescence read using an EnVision plate reader (PerkinElmer).
For measurement of BRG1 degradation, a stable HeLa cell line expressing HiBit-BRG1 and LgBit was generated. The same protocol as above was then followed.
as §1

T2 sequence (P51532 whole entry, the tested form may be a part): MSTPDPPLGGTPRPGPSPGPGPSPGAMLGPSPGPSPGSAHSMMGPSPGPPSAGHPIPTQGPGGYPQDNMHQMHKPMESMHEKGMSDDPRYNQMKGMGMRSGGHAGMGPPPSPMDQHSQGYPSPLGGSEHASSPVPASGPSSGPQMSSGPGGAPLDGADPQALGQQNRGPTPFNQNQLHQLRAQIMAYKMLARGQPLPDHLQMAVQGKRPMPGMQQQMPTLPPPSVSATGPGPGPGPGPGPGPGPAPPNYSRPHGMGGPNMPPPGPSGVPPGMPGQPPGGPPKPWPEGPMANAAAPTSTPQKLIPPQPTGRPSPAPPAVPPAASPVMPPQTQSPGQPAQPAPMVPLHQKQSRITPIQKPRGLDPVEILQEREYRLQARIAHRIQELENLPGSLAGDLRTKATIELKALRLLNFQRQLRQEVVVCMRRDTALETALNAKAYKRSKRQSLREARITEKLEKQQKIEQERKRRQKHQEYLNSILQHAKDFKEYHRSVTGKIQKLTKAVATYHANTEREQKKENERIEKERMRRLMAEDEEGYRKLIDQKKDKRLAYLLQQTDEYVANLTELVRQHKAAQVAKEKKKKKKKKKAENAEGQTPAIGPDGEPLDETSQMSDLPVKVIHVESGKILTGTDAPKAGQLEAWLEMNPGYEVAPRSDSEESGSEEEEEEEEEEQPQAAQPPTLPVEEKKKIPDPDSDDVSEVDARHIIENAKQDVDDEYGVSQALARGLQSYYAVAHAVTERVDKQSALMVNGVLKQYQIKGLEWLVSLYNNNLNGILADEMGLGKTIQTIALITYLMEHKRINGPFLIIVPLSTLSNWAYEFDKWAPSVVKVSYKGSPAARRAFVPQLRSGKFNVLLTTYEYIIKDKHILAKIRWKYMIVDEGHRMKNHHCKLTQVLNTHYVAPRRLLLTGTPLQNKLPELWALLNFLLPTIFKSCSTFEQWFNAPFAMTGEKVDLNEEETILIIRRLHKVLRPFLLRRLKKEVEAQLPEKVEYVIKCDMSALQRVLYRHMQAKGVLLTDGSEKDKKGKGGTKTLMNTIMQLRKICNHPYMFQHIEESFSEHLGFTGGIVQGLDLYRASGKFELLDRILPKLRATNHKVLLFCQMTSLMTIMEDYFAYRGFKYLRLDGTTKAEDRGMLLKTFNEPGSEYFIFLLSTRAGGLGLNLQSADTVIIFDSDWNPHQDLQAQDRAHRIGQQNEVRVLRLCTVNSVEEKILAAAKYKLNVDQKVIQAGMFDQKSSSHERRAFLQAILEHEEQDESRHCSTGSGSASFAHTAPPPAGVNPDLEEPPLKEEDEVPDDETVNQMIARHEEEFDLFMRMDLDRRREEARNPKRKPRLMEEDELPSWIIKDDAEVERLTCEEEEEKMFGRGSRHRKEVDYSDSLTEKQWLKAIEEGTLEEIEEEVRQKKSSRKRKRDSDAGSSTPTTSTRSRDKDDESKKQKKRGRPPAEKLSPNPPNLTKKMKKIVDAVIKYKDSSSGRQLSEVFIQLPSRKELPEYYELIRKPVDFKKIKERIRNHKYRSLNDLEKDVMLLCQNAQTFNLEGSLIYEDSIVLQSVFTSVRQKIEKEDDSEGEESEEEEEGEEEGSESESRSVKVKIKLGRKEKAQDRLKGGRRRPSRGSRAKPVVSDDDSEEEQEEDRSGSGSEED
T1 sequence (P51531 whole entry, the tested form may be a part): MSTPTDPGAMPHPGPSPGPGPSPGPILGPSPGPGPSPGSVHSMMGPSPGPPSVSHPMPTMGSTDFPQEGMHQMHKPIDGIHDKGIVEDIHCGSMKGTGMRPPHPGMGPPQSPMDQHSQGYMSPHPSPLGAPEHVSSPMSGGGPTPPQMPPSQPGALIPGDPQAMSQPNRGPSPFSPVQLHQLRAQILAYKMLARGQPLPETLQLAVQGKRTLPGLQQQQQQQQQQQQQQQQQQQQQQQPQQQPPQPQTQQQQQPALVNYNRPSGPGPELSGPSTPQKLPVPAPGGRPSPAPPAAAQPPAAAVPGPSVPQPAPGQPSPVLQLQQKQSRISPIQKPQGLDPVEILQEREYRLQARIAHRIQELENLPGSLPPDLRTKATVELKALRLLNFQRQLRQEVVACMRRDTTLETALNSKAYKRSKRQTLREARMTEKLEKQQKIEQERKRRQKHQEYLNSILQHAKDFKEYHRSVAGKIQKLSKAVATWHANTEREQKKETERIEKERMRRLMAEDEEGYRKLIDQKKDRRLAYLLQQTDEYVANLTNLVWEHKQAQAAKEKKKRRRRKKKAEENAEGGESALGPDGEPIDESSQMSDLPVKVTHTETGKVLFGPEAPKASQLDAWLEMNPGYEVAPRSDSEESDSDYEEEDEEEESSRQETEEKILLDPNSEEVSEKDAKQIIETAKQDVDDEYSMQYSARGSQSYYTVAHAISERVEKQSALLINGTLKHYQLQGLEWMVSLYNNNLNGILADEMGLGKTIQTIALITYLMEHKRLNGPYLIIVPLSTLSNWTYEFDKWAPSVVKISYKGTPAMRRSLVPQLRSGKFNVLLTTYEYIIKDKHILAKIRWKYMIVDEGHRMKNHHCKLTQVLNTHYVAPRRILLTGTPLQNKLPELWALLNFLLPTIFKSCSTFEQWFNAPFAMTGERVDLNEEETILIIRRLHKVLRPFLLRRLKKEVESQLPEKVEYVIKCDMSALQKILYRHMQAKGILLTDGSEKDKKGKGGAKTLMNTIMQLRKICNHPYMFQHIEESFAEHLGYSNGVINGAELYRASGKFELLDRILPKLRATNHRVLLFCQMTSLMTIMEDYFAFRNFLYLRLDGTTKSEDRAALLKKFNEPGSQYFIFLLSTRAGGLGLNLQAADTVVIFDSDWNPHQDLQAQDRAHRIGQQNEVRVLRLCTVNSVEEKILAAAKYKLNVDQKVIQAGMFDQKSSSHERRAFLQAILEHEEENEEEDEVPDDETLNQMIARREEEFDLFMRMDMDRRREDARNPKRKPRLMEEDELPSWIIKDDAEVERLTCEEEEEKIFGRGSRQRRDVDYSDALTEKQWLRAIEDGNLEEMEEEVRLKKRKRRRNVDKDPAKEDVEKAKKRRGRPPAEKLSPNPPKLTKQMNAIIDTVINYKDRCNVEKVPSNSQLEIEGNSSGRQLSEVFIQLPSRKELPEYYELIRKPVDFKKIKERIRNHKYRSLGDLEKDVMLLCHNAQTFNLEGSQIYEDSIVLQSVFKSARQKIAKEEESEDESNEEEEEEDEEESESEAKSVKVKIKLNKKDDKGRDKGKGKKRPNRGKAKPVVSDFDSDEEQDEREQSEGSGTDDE

As to `CS(=O)(=O)n1ccc(C(=O)NCC(=O)Nc2nc(-c3cccc(-c4cccc(CNC(=O)CCCOc5cccc6c5C(=O)N(C5CCC(=O)NC5=O)C6=O)c4)c3)cs2)c1` (stereo not shown) [Compound 30], at HiBit-BRM fusion protein, the DC50 is greater than 10 µM and the “BRM HiBit Degradation Maximum measured” value was “C (‘C’ = Maximum degradation <50%)”. In assay [1], the DC50 was greater than 10 µM and the Dmax was less than 50%.

For the compound `CS(=O)(=O)n1ccc(C(=O)NCC(=O)Nc2nc(-c3cccc(-c4ccnc(N5CCN(C(=O)CCOCCOCCNc6cccc7c6C(=O)N(C6CCC(=O)NC6=O)C7=O)CC5)c4)c3)cs2)c1` (stereo not shown) [Compound 31, N-[2-[[4-[3-[2-[4-[3-[2-[2-[[2-(2,6-dioxo-3-piperidyl)-1,3-dioxo-isoindolin-4-yl]amino]ethoxy]ethoxy]propanoyl]piperazin-1-yl]-4-pyridyl]phenyl]thiazol-2-yl]amino]-2-oxo-ethyl]-1-methylsulfonyl-pyrrole-3-carboxamide], at HiBit-BRM fusion protein, the DC50 lay within 0.1 to 1 µM and the “BRM HiBit Degradation Maximum measured” value is reported as “A (‘A’ = Maximum degradation >75%)”. In assay [1], the DC50 lay in the range of 0.1 to 1 µM and the Dmax is greater than 75%.

`CS(=O)(=O)n1ccc(C(=O)NCC(=O)Nc2nc(-c3cccc(-c4ccnc(N5CCN(C(=O)C6CC6CNC(=O)COc6cccc7c6C(=O)N(C6CCC(=O)NC6=O)C7=O)CC5)c4)c3)cs2)c1` (stereo not shown) [Compound 32, N-[2-[[4-[3-[2-[4-[2-[[[2-[2-(2,6-dioxo-3-piperidyl)-1,3-dioxo-isoindolin-4-yl]oxyacetyl]amino]methyl]cyclopropanecarbonyl]piperazin-1-yl]-4-pyridyl]phenyl]thiazol-2-yl]amino]-2-oxo-ethyl]-1-methylsulfonyl-pyrrole-3-carboxamide]: at HiBit-BRM fusion protein, the DC50 is greater than 10 µM and the “BRM HiBit Degradation Maximum measured” value is on record as “C (‘C’ = Maximum degradation <50%)”. In addition, in assay [1], the DC50 was greater than 10 µM and the Dmax was less than 50%.

On to `CS(=O)(=O)n1ccc(C(=O)NCC(=O)Nc2nc(-c3cccc(-c4ccnc(N5CCN(C(=O)CCCOc6cccc7c6C(=O)N(C6CCC(=O)NC6=O)C7=O)CC5)c4)c3)cs2)c1` (stereo not shown) [Compound 33, N-[2-[[4-[3-[2-[4-[4-[2-(2,6-dioxo-3-piperidyl)-1,3-dioxo-isoindolin-4-yl]oxybutanoyl]piperazin-1-yl]-4-pyridyl]phenyl]thiazol-2-yl]amino]-2-oxo-ethyl]-1-methylsulfonyl-pyrrole-3-carboxamide], for which, on HiBit-BRM fusion protein, the DC50 was greater than 10 µM and the “BRM HiBit Degradation Maximum measured” value is reported as “C (‘C’ = Maximum degradation <50%)”. Besides, in assay [1], the DC50 was greater than 10 µM and the Dmax was less than 50%.

In the case of `CS(=O)(=O)n1ccc(C(=O)NCC(=O)Nc2nc(-c3cccc(-c4ccnc(N5CCN(C(=O)CCOCCOCCOc6cccc7c6C(=O)N(C6CCC(=O)NC6=O)C7=O)CC5)c4)c3)cs2)c1` (stereo not shown) [Compound 34, N-(2-((4-(3-(2-(4-(3-(2-(2-((2-(2,6-dioxopiperidin-3-yl)-1,3-dioxoisoindolin-4-yl)oxy)ethoxy)ethoxy)propanoyl)piperazin-1-yl)pyridin-4-yl)phenyl)thiazol-2-yl)amino)-2-oxoethyl)-1-(methylsulfonyl)-1H-pyrrole-3-carboxamide], at HiBit-BRM fusion protein, the DC50 fell in the range of 0.1 to 1 µM; the “BRM HiBit Degradation Maximum measured” value was “B (‘B’ = Maximum degradation ≥50% and ≤75%)”. In addition, in assay [1], the DC50 is 0.1 to 1 µM and the Dmax was 50 to 75%.

As for `CS(=O)(=O)n1ccc(C(=O)NCC(=O)Nc2nc(-c3cccc(-c4ccnc(N5CCN(C(=O)CCCCCCCCCCNc6ccc7c(c6)C(=O)N(C6CCC(=O)NC6=O)C7=O)CC5)c4)c3)cs2)c1` (stereo not shown) [Compound 35, N-[2-[[4-[3-[2-[4-[11-[[2-(2,6-dioxo-3-piperidyl)-1,3-dioxo-isoindolin-5-yl]amino]undecanoyl]piperazin-1-yl]-4-pyridyl]phenyl]thiazol-2-yl]amino]-2-oxo-ethyl]-1-methylsulfonyl-pyrrole-3-carboxamide], on HiBit-BRM fusion protein, the DC50 lay within 0.1 to 1 µM and the “BRM HiBit Degradation Maximum measured” value is “A (‘A’ = Maximum degradation >75%)”. Further, in assay [1], the DC50 is less than 0.1 µM and the Dmax is greater than 75%.

Turning to `CS(=O)(=O)n1ccc(C(=O)NCC(=O)Nc2nc(-c3cccc(-c4ccnc(OCCNC(=O)CCCOc5cccc6c5C(=O)N(C5CCC(=O)NC5=O)C6=O)c4)c3)cs2)c1` (stereo not shown) [Compound 36, N-[2-[[4-[3-[2-[2-[4-[2-(2,6-dioxo-3-piperidyl)-1,3-dioxo-isoindolin-4-yl]oxybutanoylamino]ethoxy]-4-pyridyl]phenyl]thiazol-2-yl]amino]-2-oxo-ethyl]-1-methylsulfonyl-pyrrole-3-carboxamide], on HiBit-BRM fusion protein, the DC50 is greater than 10 µM and the “BRM HiBit Degradation Maximum measured” value is “C (‘C’ = Maximum degradation <50%)”. In addition, in assay [1], the DC50 is greater than 10 µM and the Dmax was less than 50%.

For the compound `CS(=O)(=O)n1ccc(C(=O)NCC(=O)Nc2nc(-c3cccc(-c4ccnc(OCCNC(=O)C5CC5CNC(=O)COc5cccc6c5C(=O)N(C5CCC(=O)NC5=O)C6=O)c4)c3)cs2)c1` (stereo not shown) [Compound 37, N-[2-[[4-[3-[2-[2-[[2-[[[2-[2-(2,6-dioxo-3-piperidyl)-1,3-dioxoisoindolin-4-yl]oxyacetyl]amino]methyl]cyclopropanecarbonyl]amino]ethoxy]-4-pyridyl]phenyl]thiazol-2-yl]amino]-2-oxoethyl]-1-methylsulfonyl-pyrrole-3-carboxamide], on HiBit-BRM fusion protein, the DC50 is greater than 10 µM and the “BRM HiBit Degradation Maximum measured” value is given as “C (‘C’ = Maximum degradation <50%)”. Besides, in assay [1], the DC50 is greater than 10 µM and the Dmax is less than 50%.

Turning to `CS(=O)(=O)n1ccc(C(=O)NCC(=O)Nc2nc(-c3cccc(-c4ccnc(OCCNC(=O)CCOCCOCCOc5ccc6c(c5)C(=O)N(C5CCC(=O)NC5=O)C6=O)c4)c3)cs2)c1` (stereo not shown) [Compound 38, N-(2-((4-(3-(2-(2-(3-(2-(2-((2-(2,6-dioxopiperidin-3-yl)-1,3-dioxoisoindolin-5-yl)oxy)ethoxy)ethoxy)propanamido)ethoxy)pyridin-4-yl)phenyl)thiazol-2-yl)amino)-2-oxoethyl)-1-(methylsulfonyl)-1H-pyrrole-3-carboxamide], on HiBit-BRM fusion protein, the DC50 was greater than 10 µM and the “BRM HiBit Degradation Maximum measured” value is recorded as “C (‘C’ = Maximum degradation <50%)”. Also, in assay [1], the DC50 lay within 0.1 to 1 µM and the Dmax is greater than 75%.

Turning to `CS(=O)(=O)n1ccc(C(=O)NCC(=O)Nc2nc(-c3cccc(-c4ccnc(N5CCN(C(=O)C6CC6CNC(=O)COc6ccc7c(c6)C(=O)N(C6CCC(=O)NC6=O)C7=O)CC5)c4)c3)cs2)c1` (stereo not shown) [Compound 39, N-[2-[[4-[3-[2-[4-[2-[[[2-[2-(2,6-dioxo-3-piperidyl)-1,3-dioxo-isoindolin-5-yl]oxyacetyl]amino]methyl]cyclopropanecarbonyl]piperazin-1-yl]-4-pyridyl]phenyl]thiazol-2-yl]amino]-2-oxo-ethyl]-1-methylsulfonyl-pyrrole-3-carboxamide], at HiBit-BRM fusion protein, the DC50 was greater than 10 µM and the “BRM HiBit Degradation Maximum measured” value is recorded as “C (‘C’ = Maximum degradation <50%)”. In assay [1], the DC50 was greater than 10 µM and the Dmax is less than 50%.
